In PubChem BioAssay AID1996:
≈ marks a conversion by molar mass, not a printed value.

Conditions: buffer; pH 7.4; 200.0 µM

SMILES | solubility kinetic [µg/mL]
Cc1ccc(OC(=O)c2cccnc2)cc1 | 22.5 (≈ 106 µM)
O=C(Nc1ccc2[nH]c(=O)[nH]c2c1)c1cccc([N+](=O)[O-])c1 | 1.2 (≈ 4.02 µM)
CCOc1ccccc1CN1CCN(C2CCC2)CC1CCO (stereo not given) | 39.9 (≈ 125 µM)
CCC(C)NC(=O)c1cc(-c2ccc3c(c2)OCO3)on1 (stereo not given) | 3 (≈ 10.4 µM)
CC1CCCCN1C(=O)CSc1nnc2ccccn12 (stereo not given) | > 43.6
O=C(O)CNC(=O)/C(=C\c1ccco1)NC(=O)c1ccco1 | > 45.6
O=C(Nc1nc(-c2ccccn2)cs1)Nc1ccc(F)cc1F | 2.4 (≈ 7.22 µM)
N/C(=N\OC(=O)c1cccs1)c1ccc(Cl)cc1 | 3.5 (≈ 12.5 µM)
C=CCOc1ccc(C2NC(=O)c3ccccc3O2)cc1 (stereo not given) | 1.3 (≈ 4.62 µM)
NC(=O)C1CCN(C(=O)/C=C/c2cc(Br)ccc2F)CC1 | 47.7 (≈ 134 µM)
Cc1c(/C=N/O)c2ccccn2c1C=O | > 30.3
O=C1NNC(=O)C1c1ccccc1 | > 26.4
COc1ccccc1N1C(N)=NC(N)=NC12CCCCC2.Cl | > 48.6
Cc1onc(-c2ccccc2)c1CNC(=O)Nc1ccccc1 | > 46.1
N/C(=N\OC(=O)c1cc([N+](=O)[O-])ccc1Cl)c1ccccn1 | 11.2 (≈ 34.9 µM)
CC(C)(C)P(=O)(N1CCOCC1)N1CCOCC1 | > 41.4
Nc1ccc(-c2nc3ncccc3o2)c(O)c1 | 3.1 (≈ 13.6 µM)
O=C(Nc1cccc(Cl)c1)Nc1c[nH]c(=O)[nH]c1=O | 3.4 (≈ 12.1 µM)
COC(=O)CN1C(=O)COc2ccc(S(=O)(=O)N3CCCCCC3)cc21 | 52.4 (≈ 137 µM)
CNC(=O)c1ccccc1Sc1cccc2cccc(C(=O)O)c12 | > 50.6

SMILES | solubility kinetic [µg/mL]
O=C(O)CSc1nc2ccccc2n1-c1ccccc1 | > 42.6
CCN(CC)c1c([N+](=O)[O-])c(=O)n(C)c2ccccc12 | 24.9 (≈ 90.4 µM)
Cc1nn(C)cc1S(=O)(=O)Nc1ccc(C(F)(F)F)cc1 | > 47.9
CCOc1ccc(NC(=O)NC2CCS(=O)(=O)C2)cc1 (stereo not given) | > 44.8
CCN(CC)c1cc(C)c(C#N)c2nc3ccccc3n12 | 2 (≈ 7.18 µM)
CC(=O)c1c(C)[nH]c(C(=O)/C(C#N)=C/c2cccc(C)c2)c1C | 39.5 (≈ 129 µM)
COc1cc(N2CCOCC2)ccc1C=C(C#N)C#N | 0.7 (≈ 2.6 µM)
N/C(=N\OC(=O)Cc1ccc(-c2ccccc2)cc1)c1ccncc1 | 0.7 (≈ 2.11 µM)
OCCC1CN(CC#Cc2ccccc2)CCN1C1CCCC1 (stereo not given) | > 46.9
S=C1NCN(Cc2cccnc2)CN1c1cccc2ccccc12 | > 50.2
Cc1ccc(-c2nc(-c3ccncc3)no2)cc1C | 0.7 (≈ 2.79 µM)
O=C(CN1c2cccc3cccc(c23)S1(=O)=O)Nc1c(F)c(F)c(F)c(F)c1F | 1.3 (≈ 3.03 µM)
OC1(c2ccccc2)Cc2cccc[n+]2C1c1ccccc1.[Br-] (stereo not given) | > 55.2
Cc1c(C=Nc2ccc(S(=O)(=O)CCO)cc2)c(O)[nH]c(=O)c1C#N | > 54.2
CC(Oc1ccccc1)C(=O)N1CCN(c2ncccn2)CC1 (stereo not given) | > 46.9
CC(=O)Nc1ccc(S(=O)(=O)c2cc(O)ccc2O)cc1 | > 46.1
COc1ccc(OC)c(Cc2nnc(CCC(=O)N3CCCCCC3)o2)c1 | > 56
Cc1cc(=O)oc2cc(OCC(=O)NC3CCCCC3)c(Cl)cc12 | 4.6 (≈ 13.1 µM)
Cl.c1ccc(SCCCCN2CCOCC2)cc1 | 38.2
O=C(NCCO)/C(=C/c1cccc([N+](=O)[O-])c1)NC(=O)c1ccco1 | > 51.8

SMILES | solubility kinetic [µg/mL]
CC(C)[C@H](NS(=O)(=O)c1ccccc1F)C(=O)OCC(=O)Nc1cccc(S(N)(=O)=O)c1 | > 73.1
Cc1ccc(NC(=S)Nc2cccc(-c3n[nH]c(=S)o3)c2)cc1 | > 51.4
O=C(COC(=O)c1ccc(Br)c(S(=O)(=O)N2CCOCC2)c1)NCCc1ccccc1 | 24.1 (≈ 47.1 µM)
O=C(CC12CC3CC(CC(C3)C1)C2)NCc1ccc(F)cc1 | < 0.6
Cc1cc(C)c(OCCN2CCCC2)c(Cl)c1 | 27.8 (≈ 110 µM)
O=C(Nc1ccc2c(c1)CCC2)Nc1ccccc1Cl | < 0.3
O=C(Cc1ccc(Cl)cc1)Nc1ccc(Br)cn1 | 1.4 (≈ 4.3 µM)
Cc1ccc(NS(=O)(=O)c2cccs2)c(C)c1 | 39.1 (≈ 146 µM)
Cc1c(C(=O)N2CCC2)oc2ccc(Br)cc12 | 19.5 (≈ 66.3 µM)
Cc1ccc(S(=O)(=O)NCCc2ccncc2)cc1[N+](=O)[O-] | 46.2 (≈ 144 µM)
COc1ccc(NC(=O)NC2CCCc3ccccc32)c(OC)c1 (stereo not given) | 1 (≈ 3.06 µM)
CCC(C)n1c(O)c(C=NCc2cccnc2)c(=O)[nH]c1=S (stereo not given) | 44.8 (≈ 141 µM)
O=C(COC(=O)COc1ccccc1F)Nc1ccc2c(c1)OCO2 | > 52.1
Cn1cccc1/C=N/NC(=O)Cc1cccs1 | > 37.1
Cc1cc(NC(=O)C2=C(O)c3ccccc3S(=O)(=O)N2C)no1 | 33.9 (≈ 101 µM)
COc1ccc(C(=O)OCC(=O)Nc2c(C)n(C)n(-c3ccccc3)c2=O)cc1 | > 59.3
COc1ccc(Cl)cc1S(=O)(=O)Nc1ccc(Cl)cn1 | 1.3 (≈ 3.9 µM)
CC(C)=C(NC(=O)c1ccccc1)C(=O)Nc1cccc(C)c1 | 2.8 (≈ 9.08 µM)
COc1cccc(N2CCN(CC(=O)NCc3ccccc3)CC2)c1 | 50.3 (≈ 148 µM)
CCC(C)[C@H](NC(=O)NCc1ccc(F)cc1)C(=O)O (stereo not given in full) | > 42.3
